Measured values as given in patent US10081616B2, “Soluble epoxide hydrolase inhibitors and uses thereof” (X-Chem, Inc., priority 2014, dated 2018).

Molecular target: T1, sEH (Homo sapiens, UniProt P34913)
T1 construct: purchased Cayman Chemical 10011669
T1 sequence (P34913 1-555): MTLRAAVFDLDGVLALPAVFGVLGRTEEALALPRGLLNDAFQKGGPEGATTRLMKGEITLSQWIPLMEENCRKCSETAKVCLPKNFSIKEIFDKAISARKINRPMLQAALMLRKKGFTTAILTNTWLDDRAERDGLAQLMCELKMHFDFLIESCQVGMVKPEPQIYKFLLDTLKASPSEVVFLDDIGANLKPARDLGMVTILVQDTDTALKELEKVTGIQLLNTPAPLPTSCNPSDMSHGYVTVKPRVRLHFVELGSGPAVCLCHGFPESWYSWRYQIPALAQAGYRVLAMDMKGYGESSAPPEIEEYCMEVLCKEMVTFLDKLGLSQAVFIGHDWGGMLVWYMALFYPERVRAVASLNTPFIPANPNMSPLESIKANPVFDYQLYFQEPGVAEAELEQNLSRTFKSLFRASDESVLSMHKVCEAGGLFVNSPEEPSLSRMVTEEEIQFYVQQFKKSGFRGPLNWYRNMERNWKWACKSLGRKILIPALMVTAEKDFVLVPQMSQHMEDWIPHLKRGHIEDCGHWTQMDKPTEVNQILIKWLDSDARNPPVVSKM
Experiment: sEH inhibition assay (Epoxy Fluor 7 substrate, fluorescence)
Format: biochemical
Details: enzyme 3 nM, 15 min pre-incubation at room temperature, read at 30° C. for 20 minutes, read-out: IC50 against sEH
Method: The sEH inhibition assay was conducted in costar 384 well black NBS plates (Corning). The assay buffer used was 25 mM Tris pH 7.0 and 0.1 mg/ml BSA. The enzyme was purchased from Cayman Chemical (10011669) at a stock concentration of 15.625 μM. The Epoxy Fluor 7 substrate also from Cayman Chemical (10008610) was dissolved in DMSO at a concentration of 25.68 mM. This was further diluted ten-fold in DMSO to a concentration of 2.568 mM. Competition assays were performed with 5 μL Epoxy Fluor 7 diluted from DMSO stock to a final concentration of 5 nM, 5 μL of competitor (final concentration 10 μM-0.5 nM), and 10 μL enzyme (final concentration of 3 nM) in the assay buffer for a total volume of 20 μL. The compound was pre-incubated with enzyme for 15 min at room temperature prior to addition of substrate. The plate was read kinetically at excitation 330 nm and emission 465 nm wavelengths at 30° C. for 20 minutes on the Tecan M1000. The rate was calculated for the linear portion of the curves (2.5-12.5 minutes) and data fit to a sigmoidal curve.

IC50: 2 nM
SMILES: CN(CCn1cccn1)C(=O)c1ccc(-c2cccc(C(=O)NC3CCCCC3)c2)nc1 [Compound 1, N-(2-(1H-pyrazol-1-yl)ethyl)-6-(3-(cyclohexylcarbamoyl)phenyl)-N-methylnicotinamide]
